Measurements taken from patent US6506772B1, “Substituted [1,2,4]triazolo[1,5a]pyridine derivatives with activity as adenosine receptor ligands” (Hoffmann-La Roche Inc., priority 2000, dated 2003).

Legend:
[1] = molecular target: T1, HA1 adenosine receptor (Homo sapiens, UniProt P30542); assay: Human adenosine A1 receptor affinity (Ki hA1); format: binding; conditions: affinity to human adenosine A1 receptor
T1 sequence (P30542 1-326): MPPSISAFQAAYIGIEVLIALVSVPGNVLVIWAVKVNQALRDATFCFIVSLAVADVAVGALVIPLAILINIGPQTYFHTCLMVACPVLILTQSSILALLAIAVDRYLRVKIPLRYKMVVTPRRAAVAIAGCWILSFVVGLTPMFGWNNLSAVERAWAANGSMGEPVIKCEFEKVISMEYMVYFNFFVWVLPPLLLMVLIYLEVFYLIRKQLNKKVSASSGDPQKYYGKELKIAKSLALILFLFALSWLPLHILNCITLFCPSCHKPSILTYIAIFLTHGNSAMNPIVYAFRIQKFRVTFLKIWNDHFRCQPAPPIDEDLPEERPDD

[2] = molecular target: T2, human adenosine A2A receptor (Homo sapiens, UniProt P29274); assay: Human adenosine A2A receptor [3H]-SCH-58261 binding assay; conditions: for Ki: affinity to human adenosine A2A receptor, read-out: Ki HA2A; for selectivity (A1/A2a): calculated ratio of the affinity to the HA1 receptor to the HA2a receptor
T2 construct: expressed in transfected cells; host or cells: CHO cells, Semliki Forest virus expression system; membrane preparation
T2 sequence (P29274 whole entry): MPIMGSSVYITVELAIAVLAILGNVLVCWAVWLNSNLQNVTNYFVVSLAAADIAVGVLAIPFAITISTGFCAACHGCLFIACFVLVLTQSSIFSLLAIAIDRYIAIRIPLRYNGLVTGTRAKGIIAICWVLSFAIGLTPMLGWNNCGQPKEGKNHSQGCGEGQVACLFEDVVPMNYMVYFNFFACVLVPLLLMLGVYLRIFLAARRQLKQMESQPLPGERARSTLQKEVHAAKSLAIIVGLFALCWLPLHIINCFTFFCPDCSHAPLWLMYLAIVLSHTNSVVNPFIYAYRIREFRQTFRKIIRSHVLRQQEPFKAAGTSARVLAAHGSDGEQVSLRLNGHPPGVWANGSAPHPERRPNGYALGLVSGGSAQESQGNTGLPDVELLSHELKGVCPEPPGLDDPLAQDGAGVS

Compound	Ki [1] [nM]	Ki [2] [nM]	selectivity (A1/A2a) [2]
COc1ccc(-c2nc3cc(C(=O)N(C)CCc4ccccc4)cc(N)n3n2)s1 [Example 77, 5-Amino-2-(5-methoxy-thiophen-2-yl)-[1,2,4]triazolo[1,5-a]pyridine-7-carboxylic acid methyl-phenethyl-amide]	295	116	2.5
COc1ccc(-c2nc3cc(C(=O)NCCc4ccccc4Cl)cc(N)n3n2)s1 [Example 78, 5-Amino-2-(5-methoxy-thiophen-2-yl)-[1,2,4]triazolo[1,5-a]pyridine-7-carboxylic acid [2-(2-chloro-phenyl)-ethyl]-amide]	97.4	389	0.3
Nc1cc(C(=O)NCc2ccccc2Br)cc2nc(-c3cccnc3)nn12 [Example 79, 5-Amino-2-pyridin-3-yl-[1,2,4]triazolo[1,5-a]pyridine-7-carboxylic acid 2-bromo-benzylamide]	1400	152	9.2
CCCCNC(=O)c1cc(N)n2nc(-c3cccnc3)nc2c1 [Example 80, 5-Amino-2-pyridin-3-yl-[1,2,4]triazolo[1,5-a]pyridine-7-carboxylic acid butylamide]	3770	282	13.4
Nc1cc(C(=O)NC2CCC2)cc2nc(-c3cccnc3)nn12 [Example 81, 5-Amino-2-pyridin-3-yl-[1,2,4]triazolo[1,5-a]pyridine-7-carboxylic acid cyclobutylamide]	4390	315	13.9
CCCNC(=O)c1cc(N)n2nc(-c3cccnc3)nc2c1 [Example 82, 5-Amino-2-pyridin-3-yl-[1,2,4]triazolo[1,5-a]pyridine-7-carboxylic acid propylamide]	5850	309	18.9
Nc1cc(C(=O)NCc2ccccc2Cl)cc2nc(-c3ccc[nH]3)nn12 [Example 83, 5-Amino-2-(1H-pyrrol-2-yl)-[1,2,4]triazolo[1,5-a]pyridine-7-carboxylic acid 2-chloro-benzylamide]	1500	130	11.6
CCCCN(Cc1ccccc1)C(=O)c1cc(N)n2nc(-c3ccc[nH]3)nc2c1 [Example 84, 5-Amino-2-(1H-pyrrol-2-yl)-[1,2,4]triazolo[1,5-a]pyridine-7-carboxylic acid benzyl-butyl-amide]	4960	294	16.9
CCN(Cc1ccccc1F)C(=O)c1cc(N)n2nc(-c3ccc[nH]3)nc2c1 [Example 85, 5-Amino-2-(1H-pyrrol-2-yl)-[1,2,4]triazolo[1,5-a]pyridine-7-carboxylic acid ethyl-(2-fluoro-benzyl)-amide]	1400	169	8.3
CC(C)N(Cc1ccccc1)C(=O)c1cc(N)n2nc(-c3cccnc3)nc2c1 [Example 86, 5-Amino-2-pyridin-3-yl-[1,2,4]triazolo[1,5-a]pyridine-7-carboxylic acid benzyl-isopropyl-amide]	819	252	3.2
COc1ccccc1CNC(=O)c1cc(N)n2nc(-c3cccnc3)nc2c1 [Example 87, 5-Amino-2-pyridin-3-yl-[1,2,4]triazolo[1,5-a]pyridine-7-carboxylic acid 2-methoxy-benzylamide]	1260	240	5.2
CCN(Cc1ccccc1)C(=O)c1cc(N)n2nc(-c3cccnc3)nc2c1 [Example 88, 5-Amino-2-pyridin-3-yl-[1,2,4]triazolo[1,5-a]pyridine-7-carboxylic acid benzyl-ethyl-amide]	993	278	3.6
CCCCN(Cc1ccccc1)C(=O)c1cc(N)n2nc(-c3cccnc3)nc2c1 [Example 89, 5-Amino-2-pyridin-3-yl-[1,2,4]triazolo[1,5-a]pyridine-7-carboxylic acid benzyl-butyl-amide]	900	174	5.2
Nc1cc(C(=O)N(CCc2ccccc2)Cc2ccccc2)cc2nc(-c3cccnc3)nn12 [Example 90, 5-Amino-2-pyridin-3-yl-[1,2,4]triazolo[1,5-a]pyridine-7-carboxylic acid benzyl-phenethyl-amide]	239	144	1.7
CCN(Cc1ccccc1F)C(=O)c1cc(N)n2nc(-c3cccnc3)nc2c1 [Example 91, 5-Amino-2-pyridin-3-yl-[1,2,4]triazolo[1,5-a]pyridine-7-carboxylic acid ethyl-(2-fluoro-benzyl)-amide]	815	144	5.7
COc1ccccc1CNC(=O)c1cc(N)n2nc(-c3ccc[nH]3)nc2c1 [Example 93, 5-Amino-2-(1H-pyrrol-2-yl)-[1,2,4]triazolo[1,5-a]pyridine-7-carboxylic acid 2-methoxy-benzylamide]	4860	304	16.0
Nc1cc(C(=O)N(CCc2ccccc2)Cc2ccccc2)cc2nc(-c3ccc[nH]3)nn12 [Example 96, 5-Amino-2-(1H-pyrrol-2-yl)-[1,2,4]triazolo[1,5-a]pyridine-7-carboxylic acid benzyl-phenethyl-amide]	729	217	3.4
COc1cc(CNC(=O)c2cc(N)n3nc(-c4nccs4)nc3c2)cc(OC)c1OC [Example 97, 5-Amino-2-thiazol-2-yl-[1,2,4]triazolo[1,5-a]pyridine-7-carboxylic acid 3,4,5-trimethoxy-benzylamide]	2560	235	10.9
CCCCNC(=O)c1cc(N)n2nc(-c3ccoc3)nc2c1 [Example 98, 5-Amino-2-furan-3-yl-[1,2,4]triazolo[1,5-a]pyridine-7-carboxylic acid butylamide]	767	50.5	15.2
Nc1cc(C(=O)N2CCCC2)cc2nc(-c3ccoc3)nn12 [Example 99, (5-Amino-2-furan-3-yl-[1,2,4]triazolo[1,5-a]pyridin-7-yl)-pyrrolidin-1-yl-methanone]	6100	233	26.2
Cc1ccc(-c2nc3cc(C(=O)N(C)C4CCCCC4)cc(N)n3n2)o1 [Example 100, 5-Amino-2-(5-methyl-furan-2-yl)-[1,2,4]triazolo[1,5-a]pyridine-7-carboxylic acid cyclohexyl-methyl-amide]	529	15.5	34.1
CCN(CC)C(=O)c1cc(N)n2nc(-c3ccccc3O)nc2c1 [Example 101, 5-Amino-2-(2-hydroxy-phenyl)-[1,2,4]triazolo[1,5-a]pyridine-7-carboxylic acid diethylamide]	701	33.3	21.1
Nc1cc(C(=O)N2CCCCC2)cc2nc(-c3ccccc3O)nn12 [Example 102, [5-Amino-2-(2-hydroxy-phenyl)-[1,2,4]triazolo[1,5-a]pyridin-7-yl]-piperidin-1-yl-methanone]	978	57.6	17.0
